Data on one compound can be found in ChEMBL document CHEMBL1129258, “Synthesis and structure-activity relationships of 2-pyridones: a novel series of potent DNA gyrase inhibitors as antibacterial agents” (J Med Chem, 1996).

Data set [1] in a line: Maximum plasma concentration in rats after an oral dose of 5 mg/kg. To be noted: rat.
Data set [2] addresses T1, DNA gyrase (Escherichia coli) (UniProt P0AES6+P0AES4). Put plainly: In vivo efficacy against Escherichia coli JUHL after oral administration. It is filed as functional, organism-based. To be noted: Escherichia coli K-12.
In data set [3] the target is T1, DNA gyrase (Escherichia coli). Kind of data set: In vivo efficacy against Escherichia coli JUHL by subcutaneous administration. It is filed as functional, organism-based. As to conditions: Escherichia coli K-12.
The target is the same in data set [4]. Put plainly: In vitro antibacterial activity against gram-negative organism […] ATCC 13048. It is filed as functional. To be noted: Enterobacter aerogenes.
For data set [5] the target is unchanged. Put plainly: In vitro antibacterial against gram-negative organism Escherichia coli JUHL. It is filed as functional. As to conditions: Escherichia coli K-12.
Data set [6] has the same target. Put plainly: In vitro antibacterial activity against gram-negative organism Klebsiella pneumoniae ATCC 8045. It is filed as functional.
Data set [7] can be described thus: In vivo efficacy against Pseudomonas aeruginosa 5007 after subcutaneous administration. It is filed as functional. To be noted: Pseudomonas aeruginosa, sc; read-out: ED50.
Data set [8] deals with T1, DNA gyrase (Escherichia coli). Put plainly: In vitro antibacterial activity against gram-negative organism Prov. stuartii CMX-640. It is filed as functional. To be noted: Providencia stuartii.
The nature of data set [9]: In vitro antibacterial activity against gram-negative organism Pseudomonas aeruginosa 5007. To be noted: Pseudomonas aeruginosa; read-out: MIC. It is filed as functional.
Data set [10] in a line: In vitro antibacterial activity against gram-negative organism Pseudomonas aeruginosa DPHD-2862. It is filed as functional. To be noted: Pseudomonas aeruginosa; read-out: MIC.
The subject of the next data set is Staphylococcus aureus. Put plainly: In vivo efficacy against Staphylococcus aureus NCTC-10649M after subcutaneous administration. It is filed as functional. As to conditions: sc.
Data set [11] addresses T2, DNA gyrase (Staphylococcus aureus) (UniProt P0A0K8+P20831). Put plainly: In vitro antibacterial activity against gram-positive organism Staphylococcus aureus 1775. It is filed as functional.
Data set [12] deals with T2, DNA gyrase (Staphylococcus aureus). Kind of data set: In vitro antibacterial activity against gram-positive organism Staphylococcus aureus ATCC 6538p. It is filed as functional.
For data set [13] the target is unchanged. Kind of data set: In vitro antibacterial activity against gram-positive organism Staphylococcus aureus NCTC-10649M. It is filed as functional.
Data set [14] deals with T1, DNA gyrase (Escherichia coli). Kind of data set: In vitro antibacterial activity against gram-positive organism Streptococcus bovis A-5169. It is filed as functional. As to conditions: Streptococcus equinus.
In data set [15] the test system is Streptococcus pneumoniae. Kind of data set: (§1) In vivo efficacy against Strep. administration. It is filed as functional.
In data set [16] the target is T2, DNA gyrase (Staphylococcus aureus). Put plainly: In vivo efficacy against Staphylococcus aureus NCTC-10649M after oral administration. It is filed as functional, organism-based.
In another data set the test system is Streptococcus pyogenes. Put plainly: In vitro antibacterial activity against gram-positive organism Streptococcus pyogenes EES61. It is filed as functional. To be noted: Streptococcus pyogenes; read-out: MIC.
Data set [17] deals with T1, DNA gyrase (Escherichia coli). Kind of data set: In vitro antibacterial activity against gram-positive organism Enterococcus faecium ATCC 8043. It is filed as functional.
The test system of data set [18] is Streptococcus pneumoniae. The data set is described as §1. It is filed as functional. The source holds these as a separate data set.
The nature of data set [19]: in vivo. As to conditions: rat, po, 5 mg/kg.
Description: Oral bioavailability in rat (dose 5 mg/kg)
A short description of data set [20]: in vivo. As to conditions: rat, plasma, po, 5 mg/kg.
For a further data set, the system named is Pseudomonas aeruginosa. Put plainly: In vivo efficacy against Pseudomonas aeruginosa 5007 following p.o. administration.

Each structure is given as a SMILES string. ≈ marks a conversion by molar mass, not a printed value.

T2 sequence (P0A0K8 2-644 limits assumed): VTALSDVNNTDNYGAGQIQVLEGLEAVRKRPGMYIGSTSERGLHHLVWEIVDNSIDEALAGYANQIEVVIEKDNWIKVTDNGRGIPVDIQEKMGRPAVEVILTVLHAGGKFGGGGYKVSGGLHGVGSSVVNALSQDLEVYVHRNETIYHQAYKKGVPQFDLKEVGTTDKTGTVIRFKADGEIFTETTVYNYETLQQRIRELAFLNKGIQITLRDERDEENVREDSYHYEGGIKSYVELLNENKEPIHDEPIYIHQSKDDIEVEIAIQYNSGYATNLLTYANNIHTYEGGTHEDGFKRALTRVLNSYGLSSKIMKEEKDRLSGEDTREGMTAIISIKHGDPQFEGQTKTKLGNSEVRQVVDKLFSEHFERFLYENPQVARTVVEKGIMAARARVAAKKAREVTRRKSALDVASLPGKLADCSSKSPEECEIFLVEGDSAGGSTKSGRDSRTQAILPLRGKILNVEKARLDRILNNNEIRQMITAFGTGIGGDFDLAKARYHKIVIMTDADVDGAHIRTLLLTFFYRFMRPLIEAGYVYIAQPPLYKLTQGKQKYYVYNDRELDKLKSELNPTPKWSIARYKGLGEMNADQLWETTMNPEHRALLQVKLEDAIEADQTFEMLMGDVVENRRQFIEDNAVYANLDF
T2 sequence (P20831 whole entry partner): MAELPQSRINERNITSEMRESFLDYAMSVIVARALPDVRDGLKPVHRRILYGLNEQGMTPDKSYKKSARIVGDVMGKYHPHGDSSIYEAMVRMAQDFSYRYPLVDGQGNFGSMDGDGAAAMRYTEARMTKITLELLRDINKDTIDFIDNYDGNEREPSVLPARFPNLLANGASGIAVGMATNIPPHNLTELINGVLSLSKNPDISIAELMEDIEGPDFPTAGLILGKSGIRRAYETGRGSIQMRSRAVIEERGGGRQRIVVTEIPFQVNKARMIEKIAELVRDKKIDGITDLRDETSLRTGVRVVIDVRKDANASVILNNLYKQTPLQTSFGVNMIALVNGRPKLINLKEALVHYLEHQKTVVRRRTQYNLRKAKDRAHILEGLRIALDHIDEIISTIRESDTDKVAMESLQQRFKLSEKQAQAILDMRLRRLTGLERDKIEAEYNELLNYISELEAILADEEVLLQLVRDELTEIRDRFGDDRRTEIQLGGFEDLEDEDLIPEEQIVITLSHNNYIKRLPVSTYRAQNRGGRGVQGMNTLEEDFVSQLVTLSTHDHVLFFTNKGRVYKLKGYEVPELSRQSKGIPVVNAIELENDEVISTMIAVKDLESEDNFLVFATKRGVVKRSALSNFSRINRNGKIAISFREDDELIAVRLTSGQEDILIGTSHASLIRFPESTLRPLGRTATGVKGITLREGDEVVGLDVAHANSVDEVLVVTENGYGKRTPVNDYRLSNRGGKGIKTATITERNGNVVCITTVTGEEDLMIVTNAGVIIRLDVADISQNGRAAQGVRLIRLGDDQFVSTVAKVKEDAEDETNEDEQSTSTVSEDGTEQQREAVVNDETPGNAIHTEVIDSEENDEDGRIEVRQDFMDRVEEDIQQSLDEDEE

The term Cmax denotes the maximum level reached in the sampled fluid or tissue. The term ED50 denotes the dose at which the effect has come halfway, by size or by number of responders. As usually defined, the bioavailability is dose-corrected exposure relative to a reference, in per cent. A lower bioavailability goes with little systemic uptake. As a reminder, the half-life is the time needed for the level to fall by half in the phase considered. Lower therefore signals fast loss. For the compound `Cc1c(N2CCC(O)C2)c(F)cn2c(=O)c(C(=O)O)cc(C3CC3)c12` (stereo not drawn), the Cmax in [1] was found to be 1420 ng/mL. For the same compound, the ED50 in data set [2] is more than 5 mg/kg; in data set [3], more than 1 mg/kg; in [7] it was more than 8 mg/kg; with Staphylococcus aureus, 11.3 mg/kg; in the data set with Streptococcus pneumoniae [15] it was 7.4 mg/kg; in [16], 15.2 mg/kg. The ED50 in the data set with Streptococcus pneumoniae [18] was 41.5 mg/kg; in the data set on Pseudomonas aeruginosa, more than 50 mg/kg. Besides, the MIC amounted to 0.02 µg/mL (≈ 0.0577 µM) in [4]; 0.02 µg/mL (≈ 0.0577 µM) in data set [5]; 0.02 µg/mL (≈ 0.0577 µM) in data set [6]; 0.2 µg/mL (≈ 0.577 µM) in [8]; 0.2 µg/mL (≈ 0.577 µM) in data set [9]; 6.2 µg/mL (≈ 17.9 µM) in [10]. Besides, the MIC was determined as 0.2 µg/mL (≈ 0.577 µM) in data set [11]; 0.01 µg/mL (≈ 0.0289 µM) in data set [12]; 0.005 µg/mL (≈ 0.0144 µM) in data set [13]; 0.05 µg/mL (≈ 0.144 µM) in [14]; 0.05 µg/mL (≈ 0.144 µM) in the data set on Streptococcus pyogenes; 0.05 µg/mL (≈ 0.144 µM) in [17]. This compound came in with a bioavailability in the data set “in vivo [19]” of 50%. For the same compound, in the data set “in vivo [20]”, the half-life was 5.4 h.
